According to patent US20240368150A1 (Hoffmann-La Roche Inc., priority 2021, published 2024):
Read-outs that look alike come from different tables or passages of the source.

Key:
MV-3 cells = test: T-cell - TCB - MV3 killing assay (MCSP-TCB, RFP object count by Incucyte); format: cell-based, human; settings: 5 d; for Emax / MSCP TCB killing MV-3 cells 5 d Emax: normalized: MCSP-TCB only = neutral control, 20 μM reference compound A1 = 100%; for Emax: read-out: MSCP TCB killing MV-3 cells 5 d Emax; for EC50: primary human T-cells + MCSP-TCB, MV-3 RFP cells, read-out: MSCP TCB killing MV-3 cells 5 d EC50
primary human T-cells [1] = tested on: primary human T-cells
hDGKalpha(1-735)-N-His = hDGKalpha(1-735)-N-His (Homo sapiens (Human), UniProt P23743); test: DGKalpha ADP Glo assay (in vitro DGK inhibition); format: biochemical; settings: DLG 125 uM, ATP 25 μM, DGK α 4 nM, 1 hour reaction
Sequence of hDGKalpha(1-735)-N-His (P23743 whole entry): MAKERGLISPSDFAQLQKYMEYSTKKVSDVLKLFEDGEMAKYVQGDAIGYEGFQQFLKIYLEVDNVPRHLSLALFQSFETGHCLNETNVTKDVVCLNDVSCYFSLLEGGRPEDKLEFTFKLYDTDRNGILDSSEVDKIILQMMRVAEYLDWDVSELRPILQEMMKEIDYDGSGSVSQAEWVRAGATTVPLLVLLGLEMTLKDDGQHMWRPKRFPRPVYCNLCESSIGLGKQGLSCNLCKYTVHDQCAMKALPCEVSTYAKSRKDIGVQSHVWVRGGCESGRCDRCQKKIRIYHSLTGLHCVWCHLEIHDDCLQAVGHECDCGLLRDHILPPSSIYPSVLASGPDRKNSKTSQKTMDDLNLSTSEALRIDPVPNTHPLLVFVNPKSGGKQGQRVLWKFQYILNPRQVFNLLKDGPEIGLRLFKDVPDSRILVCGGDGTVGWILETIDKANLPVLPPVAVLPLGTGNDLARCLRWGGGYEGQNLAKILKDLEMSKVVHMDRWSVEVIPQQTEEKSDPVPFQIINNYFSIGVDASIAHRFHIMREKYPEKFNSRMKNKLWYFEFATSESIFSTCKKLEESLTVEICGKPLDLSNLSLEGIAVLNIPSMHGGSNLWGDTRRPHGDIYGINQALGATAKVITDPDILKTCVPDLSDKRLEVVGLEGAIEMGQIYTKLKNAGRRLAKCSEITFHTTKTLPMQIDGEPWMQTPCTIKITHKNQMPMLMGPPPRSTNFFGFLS
Description: (§1) DGK α and ζ kinase use ATP to phosphorylate the substrate 1,2-dilauroyl-sn-glycerol (DLG, incorporated in the liposomes). ATP is converted to ADP as a result of this enzymatic reaction. After the kinase reaction, an ATP-depletion reagent is added to terminate the kinase reaction and deplete any remaining ATP, leaving only ADP. Second, a detection reagent is added to simultaneously convert ADP to ATP and allow the newly synthesized ATP to be converted to light using a coupled luciferase/luciferin reaction.
(§2) Purification of both enzymes was performed as previously described by Takahashi et al., PeerJ, 2018 (Takahashi, D.; Sakane, F. Expression and purification of human diacylglycerol kinase alpha from baculovirus-infected insect cells for structural studies. PeerJ 2018, 6, No. e5449).
(§3) A concentrated liposome solution was prepared in assay buffer without DTT and BSA: 2 mM of DLG in 21 mM of total liposome (2 mM DLG/8 mM PS/11 mM PC). […] The reactions were started by addition of DGK α and ζ kinases at 4 nM and 2 nM final concentrations, respectively. After 1 hour reaction, the amount of ADP formed was detected with the ADP-Glo kinase assay (Promega) according to the manufacturer instructions. Compounds were added in 11-points dose response, starting at […], 1:3 dilutions, with a final DMSO concentration of 2%. The multidrop combi was used as a liquid handler and luminescence was read with 0.5 s by the envision reader (PE).

hDGKzeta(1-928)-N-His = hDGKzeta(1-928)-N-His (Homo sapiens (Human), UniProt Q13574); test: DGKzeta ADP Glo assay (in vitro DGK inhibition); format: biochemical; settings: DLG 125 uM, ATP 50 μM, DGK ζ 2 nM, 1 hour reaction
Sequence of hDGKzeta(1-928)-N-His (Q13574 whole entry): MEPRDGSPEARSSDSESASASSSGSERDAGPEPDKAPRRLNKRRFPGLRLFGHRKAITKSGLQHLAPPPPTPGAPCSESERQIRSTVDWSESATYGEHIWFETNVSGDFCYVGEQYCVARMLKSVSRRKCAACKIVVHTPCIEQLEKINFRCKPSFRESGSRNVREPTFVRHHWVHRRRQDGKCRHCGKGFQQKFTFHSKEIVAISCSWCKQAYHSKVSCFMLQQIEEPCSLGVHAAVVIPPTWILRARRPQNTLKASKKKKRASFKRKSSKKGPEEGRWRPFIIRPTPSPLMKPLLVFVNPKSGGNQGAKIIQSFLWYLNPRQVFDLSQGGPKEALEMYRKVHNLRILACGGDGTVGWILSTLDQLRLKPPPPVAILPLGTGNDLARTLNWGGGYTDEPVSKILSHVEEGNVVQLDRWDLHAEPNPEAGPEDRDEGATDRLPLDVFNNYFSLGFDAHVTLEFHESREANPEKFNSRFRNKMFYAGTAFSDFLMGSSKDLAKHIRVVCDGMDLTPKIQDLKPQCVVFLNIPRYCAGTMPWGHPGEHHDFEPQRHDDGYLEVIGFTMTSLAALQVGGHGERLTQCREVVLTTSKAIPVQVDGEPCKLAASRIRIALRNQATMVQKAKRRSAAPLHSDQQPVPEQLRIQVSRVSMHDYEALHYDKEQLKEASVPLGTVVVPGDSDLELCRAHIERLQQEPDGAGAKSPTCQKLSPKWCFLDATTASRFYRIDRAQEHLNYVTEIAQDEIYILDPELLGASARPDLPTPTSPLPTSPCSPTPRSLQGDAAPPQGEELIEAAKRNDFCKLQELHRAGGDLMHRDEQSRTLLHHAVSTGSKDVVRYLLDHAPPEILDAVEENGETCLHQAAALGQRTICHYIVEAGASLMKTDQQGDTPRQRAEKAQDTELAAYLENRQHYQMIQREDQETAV
Description: as §1, §2, §3

primary human T-cells [2] = test: Proliferation assay after 5 days (CellTiter-Glo, CD3 stimulation; PBS counter screen); format: cell-based; settings: CD3 stimulation; for Emax proliferation (% activation) / Emax: 5 days, normalized to reference compound A1 as stimulator control = 100%, DMSO neutral control; for EC50: primary human T-cells, CellTiter-Glo after 5 days, EC50 of fitted sigmoidal curve, read-out: Tcell Proliferation CD3 EC50; for Emax: read-out: Emax proliferation (% activation)
In short: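 Compounds were added to medium-only plates, and proliferation was read 5 days later as luminescence from CellTiter-Glo 2.0, whose ATP signal is proportional to cell number. Plates and reagent were equilibrated to room temperature for 45 min before an equal volume of reagent was added, with 15 min rocking.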

Structure (SMILES) | EC50 (primary human T-cells [1]) | IC50 (hDGKalpha(1-735)-N-His) | IC50 (hDGKzeta(1-928)-N-His) | Emax (MV-3 cells; Homo sapiens, MV-3, 120 h) | EC50 (MV-3 cells) | Emax proliferation (% activation) (primary human T-cells [2]) | EC50 (primary human T-cells [2]) | MSCP TCB killing MV-3 cells 5 d Emax (MV-3 cells) | EC50 (MV-3 cells; Homo sapiens, MV-3, 120 h) | EC50 (primary human T-cells [2]; Homo sapiens, T-cell, 120 h) | Emax (primary human T-cells [2]; Homo sapiens, T-cell, 120 h)
N[C@H]1C[S+]([O-])c2cc(F)c(-c3noc(N4CCOC5CC54)n3)cc2N(Cc2ccc(Cl)cc2)C1=O (single isomer, unassigned; epimer a) [Example 207] | 4380 nM | > 62500 nM | 193 nM | 90% |  | 280 % activation | 1860 nM |  | 160 nM |  | 
CC(C)(C)n1nnc(-c2cc3c(cc2F)S(=O)(=O)C[C@H](NC(=O)CN)C(=O)N3Cc2ccc(Cl)cc2)n1 [Example 29, 2-amino-N-[(3R)-7-(2-tert-butyltetrazol-5-yl)-5-[(4-chlorophenyl)methyl]-8-fluoro-1,1,4-trioxo-2,3-dihydro-1lambda6,5-benzothiazepin-3-yl]acetamide] | 855 nM | > 62500 nM | 33100 nM | 95% |  |  |  |  | 37 nM | 93.6 nM | 172%
Cc1cc(S(C)(=O)=O)ccc1-c1nnc(-c2ccc3c(c2)N(Cc2ccc(Cl)cc2)C(=O)[C@@H](N)CS3(=O)=O)o1 [Example 379, (3R)-3-amino-5-[(4-chlorophenyl)methyl]-7-[5-(2-methyl-4-methylsulfonyl-phenyl)-1,3,4-oxadiazol-2-yl]-1,1-dioxo-2,3-dihydro-1λ^6,5-benzothiazepin-4-one] | 2090 nM | 42700 nM | 1300 nM |  |  |  |  |  |  | 4850 nM | 69%
COCCN1CCCC(F)(c2nnc(-c3ccc4c(c3)N(Cc3ccc(Cl)cc3)C(=O)[C@@H](N)CS4(=O)=O)o2)C1 (stereo partly drawn) [Example 386, (3R)-3-amino-5-[(4-chlorophenyl)methyl]-7-[5-[3-fluoro-1-(2-methoxyethyl)-3-piperidyl]-1,3,4-oxadiazol-2-yl]-1,1-dioxo-2,3-dihydro-1λ^6,5-benzothiazepin-4-one] | 4870 nM | 3570 nM | 778 nM |  |  |  |  |  |  | 2270 nM | 108%
Cc1ccc(-c2nnc(-c3ccc4c(c3)N(Cc3ccc(Cl)cc3)C(=O)[C@@H](N)CS4(=O)=O)o2)cn1 [Example 390, (3R)-3-amino-5-[(4-chlorophenyl)methyl]-7-[5-(6-methyl-3-pyridyl)-1,3,4-oxadiazol-2-yl]-1,1-dioxo-2,3-dihydro-1λ^6,5-benzothiazepin-4-one] | > 10000 nM | 38500 nM | 2630 nM |  |  |  |  |  |  | 4510 nM | 69%
N[C@H]1CS(=O)(=O)c2ccc(-c3nnc(N4[C@@H]5CC[C@H]4COC5)o3)cc2N(Cc2ccc(Cl)cc2)C1=O [Example 407, (3R)-3-amino-5-[(4-chlorophenyl)methyl]-7-[5-[(1R,5S)-3-oxa-8-azabicyclo[3.2.1]octan-8-yl]-1,3,4-oxadiazol-2-yl]-1,1-dioxo-2,3-dihydro-1λ^6,5-benzothiazepin-4-one] | > 10000 nM | 1420 nM | 2660 nM |  |  |  |  |  |  | 2810 nM | 96%
COC(=O)N1CCC(c2nnc(-c3ccc4c(c3)N(Cc3ccc(OC5CCCC5)cc3)C(=O)[C@@H](N)CS4(=O)=O)o2)C1 (stereo partly drawn) [Example 444, methyl 3-[5-[(3R)-3-amino-5-[[4-(cyclopentoxy)phenyl]methyl]-1,1,4-trioxo-2,3-dihydro-1λ^6,5-benzothiazepin-7-yl]-1,3,4-oxadiazol-2-yl]pyrrolidine-1-carboxylate] | > 10000 nM | 6110 nM | 1910 nM |  |  |  |  |  |  | 2370 nM | 99%
CC(C)(C)c1nnc(-c2cc3c(cc2Cl)S(=O)(=O)C[C@H](N)C(=O)N3Cc2ccc(Cl)cc2)o1 [Example 523, (3R)-3-amino-7-(5-tert-butyl-1,3,4-oxadiazol-2-yl)-8-chloro-5-[(4-chlorophenyl)methyl]-1,1-dioxo-2,3-dihydro-1λ^6,5-benzothiazepin-4-one] | 5280 nM | 1290 nM | 1510 nM |  |  |  |  |  |  | 462 nM | 45%

Stronger by EC50 (primary human T-cells [1]), values ahead:

EC50 (primary human T-cells [1]) | IC50 (hDGKalpha(1-735)-N-His) | IC50 (hDGKzeta(1-928)-N-His) | Structure (SMILES) | Emax (MV-3 cells; Homo sapiens, MV-3, 120 h) | EC50 (MV-3 cells) | Emax proliferation (% activation) (primary human T-cells [2]) | EC50 (primary human T-cells [2]) | MSCP TCB killing MV-3 cells 5 d Emax (MV-3 cells) | EC50 (MV-3 cells; Homo sapiens, MV-3, 120 h) | EC50 (primary human T-cells [2]; Homo sapiens, T-cell, 120 h) | Emax (primary human T-cells [2]; Homo sapiens, T-cell, 120 h)
299 nM | 272 nM | 316 nM | CC(C)(C)c1nnc(-c2cc3c(cc2F)S(=N)(=O)C[C@H](N)C(=O)N3Cc2ccc(OC(F)(F)F)cc2)o1 (single isomer, unassigned) [Example 517] | 79% | 330 nM | 90 % activation | 2930 nM |  |  |  | 
135 nM | 442 nM | 639 nM | CC(C)(C)c1nnc(-c2cc3c(cc2F)S(=N)(=O)C[C@H](N)C(=O)N3Cc2ccc(OC(F)(F)F)cc2)o1 (single isomer, unassigned) [Example 518] |  | 960 nM | 58 % activation | 9070 nM | 78% |  |  | 
121 nM | 340 nM | 400 nM | CC(C)(C)c1nnc(-c2cc3c(cc2F)[S+]([O-])C[C@H](N)C(=O)N3Cc2ccc(OC(F)(F)F)cc2)o1 (single isomer, unassigned; epimer a) [Example 452] |  | 230 nM | 165 % activation |  | 81% |  | 468 nM | 
36.7 nM | 210 nM | 254 nM | CC(C)(C)c1nnc(-c2cc3c(cc2F)S(=O)(=O)C[C@H](N)C(=O)N3Cc2ccc(OC(F)(F)F)cc2)o1 [Example 57, (3R)-3-Amino-7-(5-tert-butyl-1,3,4-oxadiazol-2-yl)-8-fluoro-1,1-dioxo-5-[[4-(trifluoromethoxy)phenyl]methyl]-2,3-dihydro-1λ^6,5-benzothiazepin-4-one] | 100% |  |  |  |  | 50 nM | 32.7 nM | 231%
700 nM | 797 nM | 1340 nM | CC(C)(C)c1nnc(-c2ccc3c(c2)N(Cc2ccc(Oc4ccccc4)cc2)C(=O)[C@@H](N)CS3(=O)=O)o1 [Example 438, (3R)-3-amino-7-(5-tert-butyl-1,3,4-oxadiazol-2-yl)-1,1-dioxo-5-[(4-phenoxyphenyl)methyl]-2,3-dihydro-1λ^6,5-benzothiazepin-4-one] |  |  |  |  |  |  | 246 nM | 78%
148 nM | 1390 nM | 285 nM | CC(C)(C)c1nnc(-c2ccc3c(c2)N(Cc2ccc(OC(F)(F)C(F)F)cc2)C(=O)[C@@H](N)CS3(=O)=O)o1 [Example 442, (3R)-3-amino-7-(5-tert-butyl-1,3,4-oxadiazol-2-yl)-1,1-dioxo-5-[[4-(1,1,2,2-tetrafluoroethoxy)phenyl]methyl]-2,3-dihydro-1λ^6,5-benzothiazepin-4-one] |  |  |  |  |  |  | 240 nM | 134%
783 nM | 3000 nM | 338 nM | N[C@H]1CS(=O)(=O)c2cc(F)c(-c3noc(C4(CO)CCCO4)n3)cc2N(Cc2ccc(Oc3ccccc3)cc2)C1=O (stereo partly drawn) [Example 521, (3R)-3-amino-8-fluoro-7-[5-[2-(hydroxymethyl)tetrahydrofuran-2-yl]-1,2,4-oxadiazol-3-yl]-1,1-dioxo-5-[(4-phenoxyphenyl)methyl]-2,3-dihydro-1λ^6,5-benzothiazepin-4-one] |  |  |  |  |  |  | 622 nM | 189%
619 nM | 4070 nM | 529 nM | CN1CCCC(F)(c2nc(-c3cc4c(cc3F)S(=O)(=O)C[C@H](N)C(=O)N4Cc3ccc(Oc4ccccc4)cc3)no2)C1 (stereo partly drawn) [Example 522, (3R)-3-amino-8-fluoro-7-[5-(3-fluoro-1-methyl-3-piperidyl)-1,2,4-oxadiazol-3-yl]-1,1-dioxo-5-[(4-phenoxyphenyl)methyl]-2,3-dihydro-1λ^6,5-benzothiazepin-4-one] |  |  |  |  |  |  | 782 nM | 161%
